The results in this text go back to ChEMBL document CHEMBL1201862, “PubChem BioAssay data set” (2004).

Common to all, as to assay: DTP human tumour cell line panel, 48 h
Experiment [1] relates to SNB-19.
The subject of experiment [2] is CCRF-CEM.
Experiment [3] concerns HOP-92.
Experiment [4] concerns SK-MEL-5.
The test system of experiment [5] is HT-29.
The test system of experiment [6] is SN12C.
Experiment [7] has as its system UACC-257.
Experiment [8] relates to MDA-MB-435.
The test system of experiment [9] is NCI/ADR-RES.
For experiment [10], the system named is SF-295.
For experiment [11], the system named is LOX IMVI.
Experiment [12] has as its system UACC-62.
The subject of experiment [13] is SK-MEL-2.
The subject of experiment [14] is 786-0.
For experiment [15], the system named is HCT-15.
The test system of experiment [16] is COLO 205.
In experiment [17] the test system is OVCAR-8.
The subject of experiment [18] is OVCAR-5.
Experiment [19] relates to RXF 393.
Experiment [20] relates to Malme-3M.

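Results reflect a 48-hour exposure of cells in 96-well plates to compound at five concentrations. GI50 marks 50% less growth.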 Activity calls are given as the source filed them. Cut-off read from the data, not from the text of the source: active = GI50 up to about 1.1 µM and inactive = higher.

A word on the GI50: it is the concentration at which growth is held to half of that of the control. Regarding `OC1(c2ccc(-c3ccccc3)cc2)c2ccccc2C2=NCCN21` (stereo not given), the GI50 was 15.4 µM (inactive) in experiment [1]; 39.9 µM (inactive) in experiment [2]; 50.4 µM (inactive) in experiment [3]; 19.8 µM (inactive) in [4]; 21.4 µM (inactive) in [5]; > 100 µM (inactive) in experiment [6]. Further, the GI50 is 36.1 µM (inactive) in experiment [7]; 32.2 µM (inactive) in [8]; 29.2 µM (inactive) in [9]; 52.2 µM (inactive) in experiment [10]; 34.8 µM (inactive) in [11]; 20.4 µM (inactive) in experiment [12]. Besides, the GI50 in experiment [13] was 3.61 µM (inactive); in experiment [14], 16 µM (inactive); in experiment [15] it was 39.9 µM; in [16] it was 21.4 µM (inactive).

For the compound `c1cc2c3ccsc3c3sccc3c2s1`, the GI50 in experiment [17], in [18], in experiment [2], in experiment [19], in experiment [3] and in experiment [4] was > 100 µM (inactive) each time. For the same compound, the GI50 is 99.5 µM (inactive) in experiment [5]; > 100 µM (inactive) in experiment [6]; > 100 µM (inactive) in experiment [7]; > 100 µM (inactive) in [8]; > 100 µM (inactive) in [9]; > 100 µM (inactive) in [10]. Moreover, the GI50 in experiment [11] is > 100 µM (inactive); in [12] it was > 100 µM (inactive); in experiment [13], 10.6 µM (inactive); in [14] it was 95.9 µM (inactive); in [15], more than 100 µM; in experiment [16], > 100 µM (inactive).

For the compound `O=c1[nH]c(=O)n(COC(CO)CO)cc1-c1ccccc1`, the GI50 in experiment [17], in experiment [20], in experiment [1], in experiment [18], in [2] and in experiment [3] was > 100 µM (inactive) each time. Also, the GI50 in experiment [4], in [5], in experiment [6], in experiment [7], in experiment [8] and in [9] was > 100 µM (inactive) throughout. Moreover, the GI50 in [10] was > 100 µM (inactive); in experiment [11], > 100 µM (inactive); in experiment [12], > 100 µM (inactive); in experiment [13], > 100 µM (inactive); in [14], > 100 µM (inactive); in experiment [15] it was more than 100 µM. Also, the GI50 in experiment [16] is > 100 µM (inactive).

For `C1CSCCSCCS1`, the GI50 in [17], in experiment [1], in experiment [18], in [2], in [19] and in [3] was > 100 µM (inactive) each time. Besides, the GI50 in [4], in [5], in experiment [6], in experiment [7], in experiment [8] and in experiment [9] was > 100 µM (inactive) each time. In addition, the GI50 was > 100 µM (inactive) in [10]; > 100 µM (inactive) in [11]; > 100 µM (inactive) in [12]; > 100 µM (inactive) in experiment [14]; more than 100 µM in experiment [15]; > 100 µM (inactive) in experiment [16].

`Cc1c(C)c(C)c(-n2[nH]c(=O)n(C)c2=O)c(C)c1C`: the GI50 in [17], in experiment [1], in experiment [18], in [2], in experiment [3] and in [4] was > 100 µM (inactive) throughout. The GI50 in experiment [5], in experiment [6], in experiment [7], in experiment [8], in experiment [9] and in experiment [10] was > 100 µM (inactive) each time. Further, the GI50 in experiment [11] was > 100 µM (inactive); in experiment [12], > 100 µM (inactive); in experiment [13] it was > 100 µM (inactive); in [14], > 100 µM (inactive); in [15] it was more than 100 µM; in experiment [16] it was > 100 µM (inactive).

Turning to `CC(C)C1(Cl)CCC2C3(C)CCCC(C)(C(=O)O)C3CC(Cl)C2(Cl)C1Cl` (stereo not given), the GI50 was 38.7 µM (inactive) in experiment [17]; 25.5 µM (inactive) in [20]; 34.8 µM (inactive) in [1]; 22.4 µM (inactive) in [18]; 22.8 µM (inactive) in [2]; 37.4 µM (inactive) in experiment [3]. Besides, the GI50 was 25.8 µM (inactive) in experiment [4]; 14.7 µM (inactive) in [5]; 39.2 µM (inactive) in [6]; 31.1 µM (inactive) in [7]; 25.9 µM (inactive) in [8]; 32.5 µM (inactive) in [9]. The GI50 in [11] is 33.8 µM (inactive); in experiment [12] it was 24.7 µM (inactive); in experiment [13], 31.4 µM (inactive); in [14], 32.6 µM (inactive); in experiment [15] it was 36.6 µM; in experiment [16], 18 µM (inactive).

In the case of `Cc1cccc(C)c1NC(=S)NC=C(C(N)=O)C(N)=O`, the GI50 in experiment [17], in [1], in experiment [18], in experiment [2], in experiment [19] and in [3] was > 100 µM (inactive) each time. The GI50 in [4], in [5], in experiment [6], in [7], in experiment [8] and in [9] was > 100 µM (inactive) in each case. The GI50 was > 100 µM (inactive) in experiment [10]; > 100 µM (inactive) in experiment [11]; > 100 µM (inactive) in [12]; > 100 µM (inactive) in [13]; > 100 µM (inactive) in [14]; more than 100 µM in [15]. For the same compound, the GI50 in experiment [16] was > 100 µM (inactive).

Turning to `CC1=NN(c2cccc(Cl)c2)C2(SCC(=O)N2c2nc3ccccc3s2)/C1=C\c1cccs1` (stereo not given), the GI50 in experiment [17] is 20.8 µM (inactive); in [18] it was 20.8 µM (inactive); in experiment [19] it was 20.3 µM (inactive); in experiment [3], 22.2 µM (inactive); in experiment [4], 18.1 µM (inactive); in [5], 21.6 µM (inactive). The GI50 in experiment [7] was 24.4 µM (inactive); in [8], 30.5 µM (inactive); in experiment [9], 21.9 µM (inactive); in [10], 27.4 µM (inactive); in experiment [11] it was 23.8 µM (inactive); in [13], 18.8 µM (inactive). For the same compound, the GI50 was 19.5 µM (inactive) in experiment [14] and 20.7 µM in experiment [15].

As to `Oc1ccc2c(c1)OCC1c3ccccc3OC21` (stereo not given), the GI50 in [17] is 48.3 µM (inactive); in experiment [1], 40.6 µM (inactive); in experiment [18], > 100 µM (inactive); in [2] it was 30.3 µM (inactive); in [19] it was 94.2 µM (inactive); in [3] it was > 100 µM (inactive). Further, the GI50 is 38.5 µM (inactive) in experiment [4]; 37.9 µM (inactive) in [5]; 51.6 µM (inactive) in experiment [6]; 86.9 µM (inactive) in experiment [7]; 33.8 µM (inactive) in experiment [8]; 37.8 µM (inactive) in experiment [9]. Further, the GI50 in experiment [10] is 50.6 µM (inactive); in [11], 32.3 µM (inactive); in experiment [12], 61.5 µM (inactive); in experiment [13], 60.5 µM (inactive); in experiment [14], > 100 µM (inactive); in [15] it was 82.6 µM. Moreover, the GI50 in [16] was > 100 µM (inactive).

In the case of `Cc1c2cccc-2c2cc(O)c3ccccc3c2n1-c1ccc(N(C)C)cc1`, the GI50 was 15.9 µM (inactive) in experiment [17]; 15.6 µM (inactive) in experiment [20]; 16.4 µM (inactive) in experiment [1]; 10.9 µM (inactive) in [18]; 9.77 µM (inactive) in [2]; 2.51 µM (inactive) in experiment [3]. Also, the GI50 in experiment [4] is 11.8 µM (inactive); in experiment [5], 16.7 µM (inactive); in [6], 16.1 µM (inactive); in experiment [7], 28.1 µM (inactive); in [8], 13.1 µM (inactive); in [9], 14.6 µM (inactive). Further, the GI50 is 10.1 µM (inactive) in experiment [10]; 13.4 µM (inactive) in [11]; 16 µM (inactive) in experiment [12]; 16.7 µM (inactive) in [13]; 12.2 µM (inactive) in experiment [14]; 5.37 µM in [15]. Further, the GI50 in experiment [16] is 16.1 µM (inactive).

For the compound `CC(=O)OC1CC2C(=O)C(=O)C1(C)C2(C)C` (stereo not given), the GI50 in experiment [17] was > 100 µM (inactive); in experiment [20], > 100 µM (inactive); in experiment [1] it was > 100 µM (inactive); in [18], > 100 µM (inactive); in experiment [2] it was > 100 µM (inactive); in [3], 56.6 µM (inactive). The GI50 in experiment [4], in [5], in experiment [6], in experiment [7], in experiment [8] and in experiment [9] was > 100 µM (inactive) throughout. Moreover, the GI50 in experiment [10] was > 100 µM (inactive); in [12], > 100 µM (inactive); in experiment [14], > 100 µM (inactive); in [15], more than 100 µM; in [16], > 100 µM (inactive).
